Tests used:
platelet = conditions: risk of causing thrombocytopenia; cited from earlier work
macrophages = conditions: as reported; cited from earlier work
[1] = biological target: T1, 3-hydroxy-3-methylglutaryl-CoA reductase (HMGCR) (Homo sapiens, UniProt P04035); assay: Mevalonate pathway inhibition in SC, effect on cytotoxicity by Vδ2 T cells; type: cell-based; conditions: SC treated with the HMGCR inhibitor
T1 construct: endogenous in cells; host or cells: senescent cells (SC)
T1 sequence (P04035 1-888): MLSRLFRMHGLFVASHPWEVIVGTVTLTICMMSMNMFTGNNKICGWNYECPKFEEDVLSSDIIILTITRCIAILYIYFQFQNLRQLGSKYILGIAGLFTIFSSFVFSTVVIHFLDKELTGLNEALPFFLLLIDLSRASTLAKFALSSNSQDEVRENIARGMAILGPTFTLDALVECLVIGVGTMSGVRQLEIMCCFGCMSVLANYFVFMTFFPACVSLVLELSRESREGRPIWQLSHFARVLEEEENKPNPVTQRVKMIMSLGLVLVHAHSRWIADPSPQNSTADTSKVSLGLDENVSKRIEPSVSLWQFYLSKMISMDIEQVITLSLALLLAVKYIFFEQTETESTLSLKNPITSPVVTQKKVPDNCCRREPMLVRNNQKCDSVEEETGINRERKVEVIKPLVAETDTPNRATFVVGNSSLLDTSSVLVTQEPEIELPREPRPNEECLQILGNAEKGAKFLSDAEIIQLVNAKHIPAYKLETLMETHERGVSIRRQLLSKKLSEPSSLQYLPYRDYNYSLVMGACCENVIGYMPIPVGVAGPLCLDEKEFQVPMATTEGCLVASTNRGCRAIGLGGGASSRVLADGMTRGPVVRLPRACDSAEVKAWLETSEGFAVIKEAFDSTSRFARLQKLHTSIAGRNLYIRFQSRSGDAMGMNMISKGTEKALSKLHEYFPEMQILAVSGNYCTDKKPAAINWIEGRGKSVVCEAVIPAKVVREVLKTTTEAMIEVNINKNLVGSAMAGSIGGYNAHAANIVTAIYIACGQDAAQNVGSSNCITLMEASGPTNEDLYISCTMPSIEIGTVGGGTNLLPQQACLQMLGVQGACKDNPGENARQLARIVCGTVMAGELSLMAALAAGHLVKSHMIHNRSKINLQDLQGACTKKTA
Source text: NKG2D recognizes target cells based on their surface expression of ligands such as MICA. […] Briefly, phosphoantigens such as IPP (an intermediate metabolite of mevalonate pathway) bind to the intracellular domain of BTN3A, leading to a conformational change in the extracellular domain that is recognized by γδTCR. […] To determine the role of mevalonate pathway, we inhibited the rate-limiting enzyme 3-hydroxy-3-methylglutaryl-CoA reductase (HMGCR) with mevastain in SC and tested the effect on cytotoxicity by Vδ2 T cells.

SMILES | platelet toxicity (platelet) | effect on macrophages (macrophages) | effect on Vδ2 T cell-mediated cytotoxicity toward SC [1] | effect on Vδ2 T cell-mediated cytotoxicity toward SC ([1]; listed as mevastain)
CC1(C)CCC(c2ccc(Cl)cc2)=C(CN2CCN(c3ccc(C(=O)NS(=O)(=O)c4ccc(N[C@H](CCN5CCOCC5)CSc5ccccc5)c(S(=O)(=O)C(F)(F)F)c4)cc3)CC2)C1 [ABT263, navitoclax] | dose-limiting platelet toxicity | destroy macrophages |  | 
O=c1c(O)c(-c2ccc(O)c(O)c2)oc2cc(O)ccc12 [fisetin] |  | destroy macrophages |  | 
CC[C@H](C)C(=O)O[C@H]1CCC=C2C=C[C@H](C)[C@H](CC[C@@H]3C[C@@H](O)CC(=O)O3)[C@H]21 [mevastatin] |  |  | resistant to gamma delta T cells | significantly reduced Vδ2 T cell-mediated cytotoxicity
